PMC6338774 (Scientific Reports, 2019)

Experiments:
[1] = test system: human promyelocytic leukemia HL-60 cells; assay: WST-1 cell proliferation assay, HL-60 cells; assay type: cell-based; conditions: WST-1, 72 h; for IC50: concentrations 50-200 µM, mean ± SD, na = not active in range tested
Protocol: (§1) Human promyelocytic leukemia HL-60 cells and human colon cancer cell line Caco-2 were obtained from the American Type Culture Collection (Manassas, VA, USA). […] (Institute of Biotechnology, Faculty of Environment and Natural Sciences, Brandenburg University of Technology Cottbus-Senftenberg, Senftenberg, Germany)[34] were cultured in DMEM medium supplemented with 10% fetal bovine serum (FBS, Invitrogen, Carlsbad, USA), 2 mM glutamine and antibiotics (complete DMEM). Cells (4 × 10^3/well) were grown for 24 h in 96-well plates (Sarstedt, Germany) in appropriate complete medium at 37 °C and atmosphere containing 5% CO2. […] After indicated periods of time, WST-1 mixture was added to each well, and the cells were cultured for additional 6 h. The absorbance at 450 nm was measured on an EnSpire 2300 Multilabel Reader (Perkin-Elmer, USA), and data were analyzed using the program EnSpire 9.0 (Perkin-Elmer, USA). The experiments were performed in triplicates and repeated at least three times independently.

[2] = test system: human colon carcinoma Caco-2 cells; assay: WST-1 cell proliferation assay, Caco-2 cells; assay type: cell-based; conditions: WST-1, 72 h; for IC50: concentrations 50-200 µM, mean ± SD, na = not active in range tested
Protocol: as §1

[3] = test system: porcine epithelial intestinal IPEC-J2 cells; assay: WST-1 cell proliferation assay, IPEC-J2 cells; assay type: cell-based; conditions: Sus scrofa, WST-1, 72 h, concentrations 50-200 µM, mean ± SD, na = not active in range tested
Protocol: as §1, with “independently. Results were presented as mean IC50 (concentration of the tested compound, that inhibits cell proliferation by 50%) ± standard deviation.” for “independently.”

[4] = Solubility in DMSO; assay type: physicochemical; conditions: the reason cytotoxicity was not tested

Question: For `CCCCCCCCCCCCCCCC(=O)O[C@H](COC(=O)C(C)c1ccc2cc(OC)ccc2c1)COP(=O)([O-])OCC[N+](C)(C)C` (mixture of isomers) [Compound 10, 1-[2′-(6″-Methoxynaphthalenyl)]propanoyl-2-palmitoyl-sn-glycero-3-phosphocholine], which IC50 [1] is on record?
Answer: 27.1 ± 5.13 µM

Question: What about the “concentration up to which non-toxic, Caco-2 cells” value [2] of the same compound?
Answer: ≤ 200 µM

Question: Which IC50 ([1]; Homo sapiens, HL-60) does the source give for `CCCCCCCCCCCCCCCC(=O)OC[C@H](COP(=O)([O-])OCC[N+](C)(C)C)OC(=O)C(C)c1ccc(CC(C)C)cc1` (mixture of isomers) [Compound 12, 1-Palmitoyl-2-[2′-[4″-isobutylphenyl)]propanoyl-sn-glycero-3-phosphocholine] here?
Answer: 77.4 ± 18.2 µM

Question: And the IC50 ([2]; Homo sapiens, Caco-2)?
Answer: 135 ± 18.2 µM

Question: And the IC50 [3]?
Answer: 79.2 ± 7.86 µM

Question: For `COc1ccc2cc([C@H](C)C(=O)OC[C@@H](O)COP(=O)([O-])OCC[N+](C)(C)C)ccc2c1` [Compound 8, 1-[2′S-(6″-Methoxynaphthalenyl)]propanoyl-2-hydroxy-sn-glycero-3-phosphocholine], which IC50 [2] is on record?
Answer: 115 ± 26.1 µM

Question: With `CC(C)Cc1ccc([C@H](C)C(=O)OC[C@@H](O)COP(=O)([O-])OCC[N+](C)(C)C)cc1` [Compound 7, 1-[2′S-(4″-Isobutylphenyl)]propanoyl-2-hydroxy-sn-glycero-3-phosphocholine] as the compound, how does the “concentration up to which non-toxic, HL-60 cells” value [1] read?
Answer: 200 µM

Question: What about the IC50 [2] of the same compound?
Answer: 122 ± 2.76 µM

Question: With `COc1ccc2cc([C@H](C)C(=O)O)ccc2c1` [Compound 2, naproxen, reference compound] as the compound, how does the IC50 ([1]; Homo sapiens, HL-60) read?
Answer: 141 ± 8.51 µM

Question: And the IC50 [3]?
Answer: 78.6 ± 15.9 µM

Question: With `COc1ccc2cc(C(C)C(=O)OC[C@H](COP(=O)([O-])OCC[N+](C)(C)C)OC(=O)C(C)c3ccc4cc(OC)ccc4c3)ccc2c1` (mixture of isomers) [Compound 16, 1,2-Di-[2′-(6″-methoxynaphthalenyl)]propanoyl-sn-glycero-3-phosphocholine] as the compound, how does the IC50 ([1]; Homo sapiens, HL-60) read?
Answer: 80.1 ± 10.9 µM

Question: And the IC50 ([2]; Homo sapiens, Caco-2)?
Answer: 68.7 ± 18.4 µM

Question: And the IC50 [3]?
Answer: 58.4 ± 5.67 µM

Question: Which results are given for `CCCCCCCCCCCCCCCC(=O)O[C@H](COC(=O)C(C)c1ccc(CC(C)C)cc1)COP(=O)([O-])OCC[N+](C)(C)C` (mixture of isomers) [Compound 9, 1-[2′-(4″-Isobutylphenyl)]propanoyl-2-palmitoyl-sn-glycero-3-phosphocholine]?
Answer: IC50 [1]: 67.1 ± 10.9 µM; IC50 [2]: 125 ± 3.87 µM

Question: Which IC50 ([1]; Homo sapiens, HL-60) does the source give for `CC(C)Cc1ccc(C(C)C(=O)OC[C@H](COP(=O)([O-])OCC[N+](C)(C)C)OC(=O)C(C)c2ccc(CC(C)C)cc2)cc1` (mixture of isomers) [Compound 15, 1,2-Di-[2′-(4″-isobutylphenyl)]propanoyl-sn-glycero-3-phosphocholine] here?
Answer: 64.5 ± 10.4 µM

Question: What about the IC50 ([2]; Homo sapiens, Caco-2) of the same compound?
Answer: 81.3 ± 17.3 µM

Question: And the IC50 [3]?
Answer: 83.4 ± 1.51 µM

Question: What does the source list for `CC(C)Cc1ccc(C(C)C(=O)O)cc1` (centres unmarked) [Compound 1, ibuprofen, reference compound]?
Answer: IC50 ([1]; Homo sapiens, HL-60): 106 ± 17.4 µM; concentration up to which non-toxic, HL-60 cells [1]: ≤ 100 µM; IC50 ([2]; Homo sapiens, Caco-2): 114 ± 10.4 µM; IC50 [3]: 155 ± 7.57 µM

Question: With `CCCCCCCCCCCCCCCC(=O)OC[C@H](COP(=O)([O-])OCC[N+](C)(C)C)OC(=O)C(C)c1ccc2cc(OC)ccc2c1` (stereo partly drawn) [Compound 13, 1-Palmitoyl-2-[2′S-(6″-methoxynaphthalenyl)]propanoyl-sn-glycero-3-phosphocholine] as the compound, how does the “solubility in DMSO” value [4] read?
Answer: poor solubility
